According to article PMC12304293, “Combatting virulent gut bacteria by inhibiting the biosynthesis of a two-component lanthipeptide toxin” (Nature Communications, 2025):
Non-standard residues stand in square brackets, D forms with d. Residues, ends and D or L forms follow the SMILES beside them. *: point of attachment. boroGlu = O=C(O)CC[C@H](N*)B(O)O; Gly(cPr) = N[C@H](C(=O)O)C1CC1

What was measured:
[1] = format: in vitro ADME; settings: 100 µM, 25% human serum, 3 h, 37 °C
Description: Similiarly, 9 was diluted to 100 µM in BHI that was inoculated with E. faecalis ATCC 29212 before incubating at 37 °C for 20 h. The overnight culture was flash frozen and lyophilized. The lyophilized samples were extracted with a volume of 90% methanol/10% water that was equal to the volume of the sample prior to lyophilization. The extract was assumed to have a concentration of 100 µM. […]
Human Serum + 9 Human Serum
Log(Concentration (µM)) Log(Concentration(µM))
Supplementary Figure 19. The stability of inhibitor 9 in the pres ence of human serum or C+ E. faecalis. A ) C y l A i nhibition activity of an extract of human s erum treated with 9 (100 μM) for 3 h at 37 ̊C. The resulting solution was used to determine the remaining activity of the inhibitor in a […]
CylA activity assay. […] This experiment was perform ed on three different samples of inhibitor (n = 3). B) CylA inhibition activity of an extract of E. faecalis that was treated with 9 (100 μM) for 20 h at 37 ̊C (+9 +E. faecalis). The resulting solution was used to determine the remaining activity of the inhibitor in a CylA activity assay. An IC50 equal to 36 ± 3 nM was determin ed. Thes e values are higher than the IC50 for a fresh batch of […]
(also on this page, place not known: determined. inhibition CylA These IC 50 presence serum This performed A) Non-linear fitting v i/vo IC 50. […]

[2] = molecular target: T1, His6-CylA-27-412 (Enterococcus faecalis, UniProt A0A2P6AWB8); test: FRET assay, initial rates of FRET peptide cleavage; format: biochemical; settings: 762, 254, or 85 pM of inhibitor (substoichiometric; enzyme 20 nM)
T1 sequence (A0A2P6AWB8 27-412): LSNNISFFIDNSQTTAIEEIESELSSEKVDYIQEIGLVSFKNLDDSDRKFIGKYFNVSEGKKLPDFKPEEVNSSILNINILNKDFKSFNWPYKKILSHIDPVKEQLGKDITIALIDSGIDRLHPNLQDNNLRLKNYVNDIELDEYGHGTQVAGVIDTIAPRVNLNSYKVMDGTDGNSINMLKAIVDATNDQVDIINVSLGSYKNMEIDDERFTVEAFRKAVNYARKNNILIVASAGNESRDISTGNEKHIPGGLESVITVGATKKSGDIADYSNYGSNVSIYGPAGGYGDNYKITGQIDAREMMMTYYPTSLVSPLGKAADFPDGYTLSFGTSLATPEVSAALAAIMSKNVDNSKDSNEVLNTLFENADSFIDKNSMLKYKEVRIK
Description: A FRET assay was developed to directly detect the inhibition of His6-CylA-27-412 activity by inhibitor 9. Fmoc SPPS was used to prepare a FRET labeled substrate. The substrate recognition sequence and a portion of the N-terminus of unmodified CylLS were embedded in between N-terminal Asp(EDANS) and C-terminal Lys(DABCYL) residues (Fig. 5A).
A Structure of the FRET substrate and its cleavage by CylA. Samples of FRET substrate (44 µM) in PBS (pH = 7.4) before and after treatment with His6-CylA-27-412 (200 nM) overnight at 37 °C. […] Points represent the mean. Error bars represent the standard of deviation and are centered at the mean. C The relationship between relative enzyme activity (vi/vo) and concentration of 9. […] The colored line represents the calculated fit function. Points represent the mean and error bars represent the standard of deviation centered at the mean. […] For (D) and (E) absorbance at 220 nm was monitored. […] Statistical significance was calculated using a one sample and one-sided t test. *P < 0.05, **P < 0.01. […]
The emission intensity of EDANS was measured over a 4 h period using a BioTek Synergy H4 plate reader. The slope of the linear portion of the emission intensity as a function of time curve was calculated (vi), divided by the slope of an uninhibited control (vo), and the ratio (vi/vo) was plotted as function of total inhibitor concentration.

In the case of CC(=O)NCC(=O)N[C@@H](CC(=O)O)C(=O)N[C@H](C(=O)N[C@@H](CCC(N)=O)C(=O)N[C@@H](C)C(=O)N[C@@H](CCC(=O)O)B(O)O)C1CC1 [Compound 9] (Ac-GD[Gly(cPr)]QA-boroGlu), the “stability in human serum” value [1] is reported as “relatively good stability” and the “rate of FRET peptide cleavage” value [2] is reported as “increased significantly”.
